Measurements taken from ChEMBL document CHEMBL2169775, “Tacrine-ferulic acid-nitric oxide (NO) donor trihybrids as potent, multifunctional acetyl- and butyrylcholinesterase inhibitors” (J Med Chem, 2012).
The source made the active and inactive calls. The calls are words filed in the database; no cut-off is given here.

Legend:
Cholinesterase = Cholinesterase (Equus caballus, UniProt P81908)
Description: Inhibition of equine serum BuChE using butyrylthiocholine iodide as substrate after 5 mins by Ellman's method

Acetylcholinesterase = Acetylcholinesterase (Electrophorus electricus, UniProt O42275)
Description: Inhibition of eel AChE using acetylthiocholine iodide as substrate after 5 mins by Ellman's method

[1] = test system: Radical scavenging activity; assay: Antioxidant activity assessed as DPPH free radical scavenging activity at 2 mM relative to ferulic acid; assay type: functional
[2] = Induction of NO release in phosphate buffer assessed as inorganic nitrite level at pH 7.4 at 10^-4 M measured at 30 mins by Griess assay in presence of L-cysteine; assay type: physicochemical; conditions: pH 7.4, 0.5 h, 100 µM
[3] = Induction of NO release in phosphate buffer assessed as inorganic nitrite level at pH 7.4 at 10^-4 M measured at 10 mins by Griess assay in presence of L-cysteine; assay type: physicochemical; conditions: pH 7.4, 10 min, 100 µM
Aorta = assay: tissue or blood; conditions: Rattus norvegicus
Description: Vasorelaxant activity in rat aortic rings assessed as reduction of norepinephrine-induced contraction

[4] = biological target: Cholinesterase (Equus caballus) (UniProt P81908); assay: Competitive inhibition of equine serum BuChE using butyrylthiocholine iodide as substrate at 1 to 10 nM after 4 mins by Ellman's method
[5] = biological target: Acetylcholinesterase (Electrophorus electricus) (UniProt O42275); assay: Mixed inhibition of eel AChE using acetylthiocholine iodide as substrate at 1 to 10 nM after 4 mins by Lineweaver-Burk plot analysis
Chain of Acetylcholinesterase (Electrophorus electricus) (O42275 24-633 limits assumed): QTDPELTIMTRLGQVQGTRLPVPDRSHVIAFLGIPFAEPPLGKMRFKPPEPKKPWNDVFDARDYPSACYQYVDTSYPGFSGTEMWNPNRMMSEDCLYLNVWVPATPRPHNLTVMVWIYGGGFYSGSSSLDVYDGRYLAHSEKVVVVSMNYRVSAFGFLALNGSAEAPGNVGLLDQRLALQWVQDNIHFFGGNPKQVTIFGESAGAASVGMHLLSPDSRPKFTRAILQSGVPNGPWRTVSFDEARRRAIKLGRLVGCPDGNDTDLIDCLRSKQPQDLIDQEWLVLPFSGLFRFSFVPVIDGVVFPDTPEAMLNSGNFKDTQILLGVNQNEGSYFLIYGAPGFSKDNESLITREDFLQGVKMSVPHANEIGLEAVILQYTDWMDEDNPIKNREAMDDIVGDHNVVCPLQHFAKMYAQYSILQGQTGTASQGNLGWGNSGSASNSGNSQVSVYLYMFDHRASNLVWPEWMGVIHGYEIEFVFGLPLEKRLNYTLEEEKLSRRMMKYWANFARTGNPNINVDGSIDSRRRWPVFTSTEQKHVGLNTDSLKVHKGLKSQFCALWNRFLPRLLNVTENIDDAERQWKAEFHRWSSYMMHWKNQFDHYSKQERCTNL

Chain of Cholinesterase (P81908 whole entry): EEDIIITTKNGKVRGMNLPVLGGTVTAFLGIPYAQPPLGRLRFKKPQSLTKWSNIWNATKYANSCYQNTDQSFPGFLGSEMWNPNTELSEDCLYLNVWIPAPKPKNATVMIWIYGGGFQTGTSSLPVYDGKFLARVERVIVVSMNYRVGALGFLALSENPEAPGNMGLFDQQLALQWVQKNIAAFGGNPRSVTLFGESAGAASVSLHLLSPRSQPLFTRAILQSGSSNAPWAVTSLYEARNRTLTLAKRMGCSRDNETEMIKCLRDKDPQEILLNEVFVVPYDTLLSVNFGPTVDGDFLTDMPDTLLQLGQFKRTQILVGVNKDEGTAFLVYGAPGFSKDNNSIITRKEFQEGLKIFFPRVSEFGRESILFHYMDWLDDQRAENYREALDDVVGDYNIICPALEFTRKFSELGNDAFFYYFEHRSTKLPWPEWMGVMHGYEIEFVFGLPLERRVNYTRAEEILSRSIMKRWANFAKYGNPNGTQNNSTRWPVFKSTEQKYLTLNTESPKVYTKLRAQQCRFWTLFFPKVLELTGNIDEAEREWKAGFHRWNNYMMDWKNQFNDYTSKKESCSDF
Chain of Acetylcholinesterase (O42275 whole entry): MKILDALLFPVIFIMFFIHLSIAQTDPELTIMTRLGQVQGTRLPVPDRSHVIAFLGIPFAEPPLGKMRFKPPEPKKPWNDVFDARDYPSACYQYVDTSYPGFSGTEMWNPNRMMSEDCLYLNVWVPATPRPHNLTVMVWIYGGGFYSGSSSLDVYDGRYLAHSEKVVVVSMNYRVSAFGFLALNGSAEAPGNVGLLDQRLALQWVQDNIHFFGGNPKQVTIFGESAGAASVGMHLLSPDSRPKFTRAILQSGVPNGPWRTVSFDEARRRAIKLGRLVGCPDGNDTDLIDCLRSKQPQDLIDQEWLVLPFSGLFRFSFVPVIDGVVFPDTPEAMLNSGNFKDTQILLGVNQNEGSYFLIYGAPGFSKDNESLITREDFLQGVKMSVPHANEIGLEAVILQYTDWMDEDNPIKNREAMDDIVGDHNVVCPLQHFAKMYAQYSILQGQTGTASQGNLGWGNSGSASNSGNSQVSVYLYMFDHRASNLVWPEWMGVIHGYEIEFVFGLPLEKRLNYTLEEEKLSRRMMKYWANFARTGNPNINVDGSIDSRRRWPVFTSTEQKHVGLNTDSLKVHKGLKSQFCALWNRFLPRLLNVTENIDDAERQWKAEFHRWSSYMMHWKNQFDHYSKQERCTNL
Chain of Cholinesterase (Equus caballus) (P81908 whole entry): as the sequence (P81908 whole entry) above

SMILES	IC50 (Cholinesterase)	IC50 (Acetylcholinesterase)	Activity [1]	Activity [2]	Activity [3]	EC50 (Aorta)	inhibition [4]	inhibition [5]
COc1cc(/C=C/C(=O)O)ccc1OCCCCO[N+](=O)[O-]	> 10 µM	> 10 µM	–	–	–	–	–	–
COc1cc(/C=C/C(=O)NCCCNc2c3c(nc4ccccc24)CCCC3)ccc1OCCCCCCO[N+](=O)[O-]	0.0193 µM	0.0218 µM	< 1%	–	–	–	–	–
COc1cc(/C=C/C(=O)NCCCCCCCCNc2c3c(nc4ccccc24)CCCC3)ccc1OCCO[N+](=O)[O-]	0.0016 µM	0.0055 µM	< 1%	0.275 µg/mL	0.145 µg/mL	234 µM	–	–
COc1cc(/C=C/C(=O)NCCCCNc2c3c(nc4ccccc24)CCCC3)ccc1OCCCCO[N+](=O)[O-]	0.0047 µM	0.0195 µM	< 1%	–	–	–	–	–
COc1cc(/C=C/C(=O)NCCCNc2c3c(nc4ccccc24)CCCC3)ccc1OCCO[N+](=O)[O-]	0.0249 µM	0.0144 µM	< 1%	–	–	–	–	–
NCCCCCCNc1c2c(nc3ccccc13)CCCC2	0.0066 µM	0.0237 µM	–	–	–	–	–	–
COc1cc(/C=C/C(=O)NCCCNc2c3c(nc4ccccc24)CCCC3)ccc1OCCCO[N+](=O)[O-]	0.0177 µM	0.0109 µM	< 1%	0.305 µg/mL	0.241 µg/mL	34.3 µM	Active	Active
COc1cc(/C=C/C(=O)O)ccc1OCCCCCCO[N+](=O)[O-]	> 10 µM	> 10 µM	–	–	–	–	–	–
COc1cc(/C=C/C(=O)NCCNc2c3c(nc4ccccc24)CCCC3)ccc1O	0.0375 µM	0.062 µM	–	–	–	–	–	–
COc1cc(/C=C/C(=O)NCCCNc2c3c(nc4ccccc24)CCCC3)ccc1OCCCCO[N+](=O)[O-]	0.0062 µM	0.0036 µM	< 1%	–	–	–	–	–
O=[N+]([O-])O[C@H]1CO[C@H]2[C@@H]1OC[C@H]2O[N+](=O)[O-] [ISOSORBIDE DINITRATE]	–	–	–	–	–	25.2 µM	–	–
COc1cc(/C=C/C(=O)NCCCCCCCCNc2c3c(nc4ccccc24)CCCC3)ccc1OCCCCO[N+](=O)[O-]	0.0018 µM	0.0094 µM	< 1%	–	–	–	–	–
COc1cc(/C=C/C(=O)NCCCCCCNc2c3c(nc4ccccc24)CCCC3)ccc1OCCCCO[N+](=O)[O-]	0.0014 µM	0.0037 µM	< 1%	–	–	–	–	–
NCCCCCCCCNc1c2c(nc3ccccc13)CCCC2	0.0028 µM	0.0029 µM	–	–	–	–	–	–
COc1cc(/C=C/C(=O)NCCCCNc2c3c(nc4ccccc24)CCCC3)ccc1OCCCO[N+](=O)[O-]	0.0236 µM	0.0443 µM	< 1%	–	–	–	–	–
COc1cc(/C=C/C(=O)NCCNc2c3c(nc4ccccc24)CCCC3)ccc1OCCO[N+](=O)[O-]	0.0105 µM	0.0172 µM	< 1%	–	–	48.8 µM	–	–
NCCCNc1c2c(nc3ccccc13)CCCC2	0.0197 µM	0.0795 µM	–	–	–	–	–	–
COc1cc(/C=C/C(=O)NCCCCCCCCNc2c3c(nc4ccccc24)CCCC3)ccc1OCCCCCCO[N+](=O)[O-]	0.0019 µM	0.0108 µM	< 1%	–	–	–	–	–

SMILES	IC50 (Cholinesterase)	IC50 (Acetylcholinesterase)	Activity [1]	Activity [2]	Activity [3]	EC50 (Aorta)	inhibition [4]	inhibition [5]
COc1cc(/C=C/C(=O)NCCCCCCCCNc2c3c(nc4ccccc24)CCCC3)ccc1OCCCO[N+](=O)[O-]	0.001 µM	0.0101 µM	< 1%	–	–	–	–	–
COc1cc(/C=C/C(=O)NCCCCNc2c3c(nc4ccccc24)CCCC3)ccc1O	0.0098 µM	0.0111 µM	–	–	–	–	–	–
COc1cc(/C=C/C(=O)NCCNc2c3c(nc4ccccc24)CCCC3)ccc1OCCCO[N+](=O)[O-]	0.0084 µM	0.0199 µM	< 1%	–	–	–	–	–
COc1cc(/C=C/C(=O)NCCCCCCNc2c3c(nc4ccccc24)CCCC3)ccc1OCCO[N+](=O)[O-]	0.0052 µM	0.0083 µM	< 1%	–	–	–	–	–
COc1cc(/C=C/C(=O)NCCCCCCCCNc2c3c(nc4ccccc24)CCCC3)ccc1O	0.0274 µM	0.0169 µM	–	–	–	–	–	–
COc1cc(/C=C/C(=O)NCCCCCCNc2c3c(nc4ccccc24)CCCC3)ccc1OCCCO[N+](=O)[O-]	0.0056 µM	0.0044 µM	< 1%	–	–	–	–	–
COc1cc(/C=C/C(=O)NCCCNc2c3c(nc4ccccc24)CCCC3)ccc1O	0.0311 µM	0.0567 µM	–	–	–	2050 µM	–	–
NCCCCNc1c2c(nc3ccccc13)CCCC2	0.0229 µM	0.0393 µM	–	–	–	–	–	–
COc1cc(/C=C/C(=O)O)ccc1OCCCO[N+](=O)[O-]	> 10 µM	> 10 µM	–	–	–	–	–	–
COc1cc(/C=C/C(=O)O)ccc1OCCO[N+](=O)[O-]	> 10 µM	> 10 µM	–	–	–	–	–	–
COc1cc(/C=C/C(=O)NCCCCCCNc2c3c(nc4ccccc24)CCCC3)ccc1OCCCCCCO[N+](=O)[O-]	0.002 µM	0.0048 µM	< 1%	–	–	–	–	–
COc1cc(/C=C/C(=O)NCCCCCCNc2c3c(nc4ccccc24)CCCC3)ccc1O	0.0263 µM	0.0127 µM	64.7%	–	–	–	–	–
COc1cc(/C=C/C(=O)NCCNc2c3c(nc4ccccc24)CCCC3)ccc1OCCCCO[N+](=O)[O-]	0.0076 µM	0.0271 µM	< 1%	–	–	–	–	–
CCCOc1ccc(/C=C/C(=O)NCCCNc2c3c(nc4ccccc24)CCCC3)cc1OC	0.0403 µM	0.0698 µM	–	–	–	838 µM	–	–
COc1cc(/C=C/C(=O)NCCCCNc2c3c(nc4ccccc24)CCCC3)ccc1OCCO[N+](=O)[O-]	0.0202 µM	0.0221 µM	< 1%	–	–	–	–	–
NCCNc1c2c(nc3ccccc13)CCCC2	0.0309 µM	0.0714 µM	–	–	–	–	–	–
COc1cc(/C=C/C(=O)NCCNc2c3c(nc4ccccc24)CCCC3)ccc1OCCCCCCO[N+](=O)[O-]	0.0218 µM	0.0406 µM	< 1%	–	–	–	–	–
COc1cc(/C=C/C(=O)NCCCCNc2c3c(nc4ccccc24)CCCC3)ccc1OCCCCCCO[N+](=O)[O-]	0.0117 µM	0.0279 µM	< 1%	–	–	–	–	–
